According to PubChem BioAssay AID330 (DTP/NCI, 2004):
Several values for one entry are separate records, joined by “and”; a condition that tells them apart may be missing. Identical values can stand only once. Inconclusive results and toxic doses are left out. The calls were made as follows: active = survival T/C of 150% or more; inactive = T/C below 125% in these data. Bridge positions count the residues as written; N and C are the ends. Peptide text beside a SMILES is read from it. I, II: the chains in the order shown.

Tested on: P388 leukemia ip, CD2F1 mice, survival T/C
Test: NCI In Vivo Anticancer Drug Screen. Data for tumor model P388 Leukemia (intraperitoneal) in CD2F1 (CDF1) mice
Conditions: endpoint: median survival time, higher = longer survival
Procedure, shortened: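 Mice carrying the transplanted tumor received test compound or vehicle. Survival was recorded in each group, and the value is the treated-group measurement divided by that of the vehicle-treated control group.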

[1] = dose: 50.0 mg/kg/injection, schedule: Q01DX009 (ip), vehicle: Klucel (hydroxypropylcellulose) (HPC)
[2] = dose: 100.0 mg/kg/injection, schedule: Q01DX009 (ip), vehicle: Klucel (hydroxypropylcellulose) (HPC)
[3] = dose: 50.0 mg/kg/injection, schedule: Q01DX009 (ip), vehicle: saline
[4] = dose: 100.0 mg/kg/injection, schedule: Q01DX009 (ip), vehicle: saline
[5] = dose: 200.0 mg/kg/injection, schedule: Q01DX009 (ip), vehicle: saline
[6] = dose: 25.0 mg/kg/injection, schedule: Q01DX009 (ip), vehicle: Klucel (hydroxypropylcellulose) (HPC)
[7] = dose: 50.0 mg/kg/injection, schedule: Q01DX005 (ip), vehicle: Klucel (hydroxypropylcellulose) (HPC)
[8] = dose: 100.0 mg/kg/injection, schedule: Q01DX005 (ip), vehicle: Klucel (hydroxypropylcellulose) (HPC)
[9] = dose: 200.0 mg/kg/injection, schedule: Q01DX005 (ip), vehicle: Klucel (hydroxypropylcellulose) (HPC)
[10] = dose: 50.0 mg/kg/injection, schedule: Q01DX005 (ip), vehicle: saline with Tween-80
[11] = dose: 100.0 mg/kg/injection, schedule: Q01DX005 (ip), vehicle: saline with Tween-80
[12] = dose: 200.0 mg/kg/injection, schedule: Q01DX005 (ip), vehicle: saline with Tween-80
[13] = dose: 100.0 mg/kg/injection, schedule: Q01DX001 (ip), vehicle: saline
[14] = dose: 100.0 mg/kg/injection, schedule: Q04DX003 (ip), vehicle: saline with Tween-80
[15] = dose: 200.0 mg/kg/injection, schedule: Q04DX003 (ip), vehicle: saline with Tween-80
[16] = dose: 25.0 mg/kg/injection, schedule: Q01DX009 (ip), vehicle: saline with Tween-80
[17] = dose: 50.0 mg/kg/injection, schedule: Q01DX009 (ip), vehicle: saline with Tween-80
[18] = dose: 100.0 mg/kg/injection, schedule: Q01DX009 (ip), vehicle: saline with Tween-80
[19] = dose: 50.0 mg/kg/injection, schedule: Q04DX003 (ip), vehicle: saline with Tween-80

Measured: T/C

O=S1(=O)CCN(Cc2ccco2)CC1
inactive: [1] 100 % of control | [2] 99 % of control

NC(CSSCC(N)C(=O)NC(Cc1ccc(O)cc1)C(=O)O)C(=O)NC(Cc1ccc(O)cc1)C(=O)O (stereo not drawn) (I: H-Cys-Tyr-OH / II: H-Cys-Tyr-OH; disulfide I:1-II:1; configuration not given here)
inactive: dose: 50.0 mg/kg/injection, schedule: Q01DX005 (ip), vehicle: saline 110 % of control | dose: 100.0 mg/kg/injection, schedule: Q01DX005 (ip), vehicle: saline 111 % of control | dose: 200.0 mg/kg/injection, schedule: Q01DX005 (ip), vehicle: saline 103 % of control

Cc1cc(OC(=O)c2c(-c3ccccc3)noc2C)n(-c2ccc(NC(=O)c3c(-c4ccccc4)noc3C)cc2)n1
inactive: [3] 96 % of control | [4] 100 % of control | [5] 101 % of control

O=c1[nH][nH]c2c([N+](=O)[O-])ccc(F)c12
inactive: dose: 12.5 mg/kg/injection, schedule: Q01DX009 (ip), vehicle: Klucel (hydroxypropylcellulose) (HPC) 100 % of control | [6] 101 % of control | [1] 110 % of control

COc1cc(/C=C/c2ccc(OC)c(O)c2)cc(OC)c1
inactive: dose: 6.25 mg/kg/injection, schedule: Q01DX005 (ip), vehicle: Klucel (hydroxypropylcellulose) (HPC) 108 % of control | dose: 12.5 mg/kg/injection, schedule: Q01DX005 (ip), vehicle: Klucel (hydroxypropylcellulose) (HPC) 103 % of control | dose: 25.0 mg/kg/injection, schedule: Q01DX005 (ip), vehicle: Klucel (hydroxypropylcellulose) (HPC) 99 % of control | [7] 119 % of control and 94 % of control | [8] 98 % of control | [9] 94 % of control

O=C1CSc2nc3ccc(Cl)cc3c(=O)n21
inactive: [10] 93 % of control | [11] 101 % of control | [12] 104 % of control

C=C1CC[C@H]2C(C)=CC[C@@H]3[C@H](OC(=O)[C@H]3CN(C)C)[C@@H]12
inactive: [13] 98 % of control | dose: 200.0 mg/kg/injection, schedule: Q01DX001 (ip), vehicle: saline 104 % of control | dose: 400.0 mg/kg/injection, schedule: Q01DX001 (ip), vehicle: saline 105 % of control

Nc1nnc2nc(C(C(=O)c3ccc(O)cc3O)c3nc4nnc(N)n4[nH]c3=O)c(=O)[nH]n12
inactive: dose: 60.0 mg/kg/injection, schedule: Q01DX005 (ip), vehicle: saline with Tween-80 102 % of control | dose: 120.0 mg/kg/injection, schedule: Q01DX005 (ip), vehicle: saline with Tween-80 98 % of control | dose: 240.0 mg/kg/injection, schedule: Q01DX005 (ip), vehicle: saline with Tween-80 104 % of control

OCn1nnc2ccccc21
inactive: [6] 116 % of control | [1] 102 % of control | [2] 112 % of control | dose: 200.0 mg/kg/injection, schedule: Q01DX009 (ip), vehicle: Klucel (hydroxypropylcellulose) (HPC) 106 % of control

CCOC(=O)c1ccc(NCC#N)cc1
inactive: [14] 100 % of control | [15] 100 % of control | dose: 400.0 mg/kg/injection, schedule: Q04DX003 (ip), vehicle: saline with Tween-80 100 % of control

CC12CCCN1C(=O)C1(C)CCCN1C2=O (stereo not given)
inactive: dose: 100.0 mg/kg/injection, schedule: Q04DX003 (ip), vehicle: saline 101 % of control | dose: 200.0 mg/kg/injection, schedule: Q04DX003 (ip), vehicle: saline 98 % of control | dose: 400.0 mg/kg/injection, schedule: Q04DX003 (ip), vehicle: saline 97 % of control

CC[C@@]1(O)C[C@H](OC2CC(N(C)C)C(OC3CC(O)C(OC4CC(O)C(O)C(C)O4)C(C)O3)C(C)O2)c2c(cc3c(c2O)C(=O)c2c(O)ccc(O)c2C3=O)[C@H]1C(=O)OC (stereo not given in full)
active: dose: 1.8 mg/kg/injection, schedule: Q04DX003 (ip), vehicle: water 157 % of control | dose: 2.7 mg/kg/injection, schedule: Q04DX003 (ip), vehicle: water 155 % of control | dose: 3.8 mg/kg/injection, schedule: Q01DX001 (ip), vehicle: other 163 % of control | dose: 7.5 mg/kg/injection, schedule: Q01DX001 (ip), vehicle: other 157 % of control

CCCCCCCCC(=O)N(C)OC
inactive: [16] 110 % of control | [17] 110 % of control | [18] 105 % of control

COC(=O)N[Si](C)(C)C
inactive: [3] 93 % of control | [4] 98 % of control | [5] 100 % of control

O=c1cc(CCl)[nH]nc1CCl
active: dose: 14.5 mg/kg/injection, schedule: Q04DX003 (ip), vehicle: saline with Tween-80 160 % of control | dose: 33.0 mg/kg/injection, schedule: Q04DX003 (ip), vehicle: saline with Tween-80 158 % of control | [19] 173 % of control

CCCOC1CC(C)(O)Cc2cc3c(c(O)c21)C(=O)c1c(O)cc2c(c1C3=O)OC1OC2(C)C(O)C(N(C)C)C1O (stereo not given)
active: dose: 3.13 mg/kg/injection, schedule: Q01DX009 (ip), vehicle: other 150 % of control
inactive: dose: 1.56 mg/kg/injection, schedule: Q01DX009 (ip), vehicle: other 124 % of control

O=C(O)C(CO)Nc1ncnc2nc[nH]c12 (stereo not given)
inactive: [7] 106 % of control | [8] 109 % of control | [9] 109 % of control

CC(C)[Si]1(C(C)C)N[Si](C(C)C)(C(C)C)N1
inactive: dose: 15.0 mg/kg/injection, schedule: Q01DX005 (ip), vehicle: saline 115 % of control | dose: 30.0 mg/kg/injection, schedule: Q01DX005 (ip), vehicle: saline 105 % of control | dose: 60.0 mg/kg/injection, schedule: Q01DX005 (ip), vehicle: saline 98 % of control | dose: 120.0 mg/kg/injection, schedule: Q01DX005 (ip), vehicle: saline 106 % of control | dose: 240.0 mg/kg/injection, schedule: Q01DX005 (ip), vehicle: saline 97 % of control

C#CCN(CC#C)S(=O)(=O)c1ccc(C)cc1
inactive: [3] 104 % of control | [4] 108 % of control | [5] 108 % of control

CCCCCCCCCCCCCCCC[n+]1ccc(C(N)=O)cc1
inactive: dose: 3.0 mg/kg/injection, schedule: Q01DX009 (ip), vehicle: saline with Tween-80 109 % of control | dose: 6.0 mg/kg/injection, schedule: Q01DX009 (ip), vehicle: saline with Tween-80 118 % of control | dose: 12.0 mg/kg/injection, schedule: Q01DX009 (ip), vehicle: saline with Tween-80 109 % of control

CCOC(=O)C(Cc1ccc(N(CCCl)CCCl)cc1)NC=O (stereo not given)
inactive: [18] 100 % of control | [15] 91 % of control
active: dose: 6.25 mg/kg/injection, schedule: Q04DX003 (ip), vehicle: saline with Tween-80 150 % of control | dose: 12.5 mg/kg/injection, schedule: Q04DX003 (ip), vehicle: saline with Tween-80 154 % of control | [16] 181 % of control | [17] 209 % of control | [19] 181 % of control | [14] 204 % of control and 216 % of control

CCC(C)C1=NCCCN1 (stereo not given)
inactive: [13] 100 % of control

NC(COC(=O)c1ccccc1)C(=O)O (stereo not given)
inactive: [10] 100 % of control | [11] 98 % of control | [12] 93 % of control

CC1(C)[C@@H]2CC[C@H](OC(=O)/C=C/c3ccccc3)[C@@H]2[C@@H]2CC[C@H]3O[C@]321
inactive: dose: 80.0 mg/kg/injection, schedule: Q01DX001 (ip), vehicle: Klucel (hydroxypropylcellulose) (HPC) 109 % of control | dose: 160.0 mg/kg/injection, schedule: Q01DX001 (ip), vehicle: Klucel (hydroxypropylcellulose) (HPC) 102 % of control | dose: 320.0 mg/kg/injection, schedule: Q01DX001 (ip), vehicle: Klucel (hydroxypropylcellulose) (HPC) 100 % of control
